Measured values published in the supplement of paper PMC9663587.

What was measured:
Doxorubicin = compound: COc1cccc2c1C(=O)c1c(O)c3c(c(O)c1C2=O)C[C@@](O)(C(=O)CO)C[C@@H]3O[C@H]1C[C@H](N)[C@H](O)[C@H](C)O1 [Doxorubicin]
Ipatasertib/GDC0068 = compound: CC(C)NC[C@@H](C(=O)N1CCN(c2ncnc3c2[C@H](C)C[C@H]3O)CC1)c1ccc(Cl)cc1 [Ipatasertib/GDC0068]
Luminespib/NVP-AUY922 = compound: CCNC(=O)c1noc(-c2cc(C(C)C)c(O)cc2O)c1-c1ccc(CN2CCOCC2)cc1 [Luminespib/NVP-AUY922]
BSJ-01-175 = compound: CN(C)C/C=C/C(=O)Nc1ccc(O[C@@H]2CCC[C@@H](Nc3ncc(Cl)c(-c4c[nH]c5ccccc45)n3)C2)cc1 [BSJ-01-175]
Flavopiridol [1] = compound: T1, CN1CC[C@H](c2c(O)cc(O)c3c(=O)cc(-c4ccccc4Cl)oc23)[C@H](O)C1 [Flavopiridol]
Paclitaxel = compound: CC(=O)O[C@H]1C(=O)[C@@]2(C)[C@H]([C@H](OC(=O)c3ccccc3)[C@]3(O)C[C@H](OC(=O)[C@H](O)[C@@H](NC(=O)c4ccccc4)c4ccccc4)C(C)=C1C3(C)C)[C@]1(OC(C)=O)CO[C@@H]1C[C@@H]2O [Paclitaxel]
Taselisib/GDC0032 = compound: Cc1nc(-c2cn3c(n2)-c2ccc(-c4cnn(C(C)(C)C(N)=O)c4)cc2OCC3)n(C(C)C)n1 [Taselisib/GDC0032]
ABT-737 = compound: CN(C)CC[C@H](CSc1ccccc1)Nc1ccc(S(=O)(=O)NC(=O)c2ccc(N3CCN(Cc4ccccc4-c4ccc(Cl)cc4)CC3)cc2)cc1[N+](=O)[O-] [ABT-737]
Olaparib/AZD2281 = compound: O=C(c1cc(Cc2n[nH]c(=O)c3ccccc23)ccc1F)N1CCN(C(=O)C2CC2)CC1 [Olaparib/AZD2281]
[2] = compound: CCc1cnn2c(NCc3ccc[n+]([O-])c3)cc(N3CCCC[C@H]3CCO)nc12; experiment: GR value, 72 h; higher = faster growth (1 = untreated, <0 = killing);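 further: breast cancer and non-malignant breast epithelial lines, nine half-log doses, viable cells counted by Hoechst and LIVE/DEAD dye imaging versus time-zero plates and DMSO controls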
Flavopiridol [3] = compound: T1, Flavopiridol; experiment: as above
THZ531 = compound: CN(C)C/C=C/C(=O)Nc1ccc(C(=O)N2CCC[C@@H](Nc3ncc(Cl)c(-c4c[nH]c5ccccc45)n3)C2)cc1 [THZ531]; experiment: as above
LEE011/Ribociclib = compound: CN(C)C(=O)c1cc2cnc(Nc3ccc(N4CCNCC4)cn3)nc2n1C1CCCC1 [LEE011/Ribociclib]; experiment: as above
[4] = compound: CCN1CCN(Cc2ccc(Nc3ncc(F)c(-c4cc(F)c5nc(C)n(C(C)C)c5c4)n3)nc2)CC1; experiment: as above
BSJ-03-123 = compound: CC(=O)c1c(C)c2cnc(Nc3ccc(N4CCN(CCOCCOCCOCCNC(=O)COc5cccc6c5C(=O)N(C5CCC(=O)NC5=O)C6=O)CC4)cn3)nc2n(C2CCCC2)c1=O [BSJ-03-123]; experiment: as above
YKL-5-124 = compound: C=CC(=O)Nc1ccc(C(=O)Nc2[nH]nc3c2CN(C(=O)N[C@H](CN(C)C)c2ccccc2)C3(C)C)cc1 [YKL-5-124]; experiment: as above
[5] = compound: CC(=O)c1c(C)c2cnc(Nc3ccc(N4CCNCC4)cn3)nc2n(C2CCCC2)c1=O; experiment: as above
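Wherever GR50, 72 h is given: breast cancer and non-malignant breast epithelial cell lines, Deep Dye Drop or Dye Drop imaging, nine half-log doses, GR normalized to time-zero plates and DMSO-only controls.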

HCC38
GR50, 72 h (Doxorubicin): 0.00955 µM
GR50, 72 h (Ipatasertib/GDC0068): > 10 µM
GR50, 72 h (Luminespib/NVP-AUY922): 0.00714 µM
GR50, 72 h (BSJ-01-175): 0.13 µM
GR50, 72 h (Flavopiridol [1]): 0.139 µM
GR50, 72 h (Paclitaxel): 0.00147 µM
GR50, 72 h (Taselisib/GDC0032): 2.7 µM
GR50, 72 h (ABT-737): 0.998 µM
GR50, 72 h (Olaparib/AZD2281): 8.42 µM
GR value ([2]; 0.0001 µM): 0.989 GR
GR value ([2]; 0.0003162 µM): 1.05 GR
GR value ([2]; 0.001 µM): 1.05 GR
GR value ([2]; 0.003162 µM): 1.14 GR
GR value ([2]; 0.01 µM): 0.761 GR
GR value ([2]; 0.03162 µM): -0.374 GR
GR value ([2]; 0.1 µM): -0.453 GR
GR value ([2]; 0.3162 µM): -0.435 GR
GR value ([2]; 1 µM): -0.453 GR
GR value (Flavopiridol [3]; 0.0001 µM): 0.986 GR
GR value (Flavopiridol [3]; 0.0003162 µM): 0.927 GR
GR value (Flavopiridol [3]; 0.001 µM): 0.962 GR
GR value (Flavopiridol [3]; 0.003162 µM): 0.855 GR
GR value (Flavopiridol [3]; 0.01 µM): 0.897 GR
GR value (Flavopiridol [3]; 0.03162 µM): 0.814 GR
GR value (Flavopiridol [3]; 0.1 µM): 0.591 GR
GR value (Flavopiridol [3]; 0.3162 µM): 0.182 GR
GR value (Flavopiridol [3]; 1 µM): -0.439 GR
GR value (THZ531; 0.0001 µM): 0.922 GR
GR value (THZ531; 0.0003162 µM): 1.03 GR
GR value (THZ531; 0.001 µM): 1.04 GR
GR value (THZ531; 0.003162 µM): 0.998 GR
GR value (THZ531; 0.01 µM): 1.07 GR
GR value (THZ531; 0.03162 µM): 1.02 GR
GR value (THZ531; 0.1 µM): 0.765 GR
GR value (THZ531; 0.3162 µM): 0.0587 GR
GR value (THZ531; 1 µM): -0.335 GR
GR value (LEE011/Ribociclib; 0.001 µM): 0.807 GR
GR value (LEE011/Ribociclib; 0.003162 µM): 0.769 GR
GR value (LEE011/Ribociclib; 0.01 µM): 0.692 GR
GR value (LEE011/Ribociclib; 0.03162 µM): 0.727 GR
GR value (LEE011/Ribociclib; 0.1 µM): 0.577 GR
GR value (LEE011/Ribociclib; 0.3162 µM): 0.511 GR
GR value (LEE011/Ribociclib; 1 µM): 0.532 GR
GR value (LEE011/Ribociclib; 3.162 µM): 0.4 GR
GR value (LEE011/Ribociclib; 10 µM): 0.239 GR
GR value ([4]; 0.001 µM): 0.924 GR
GR value ([4]; 0.003162 µM): 0.846 GR
GR value ([4]; 0.01 µM): 0.738 GR
GR value ([4]; 0.03162 µM): 0.452 GR
GR value ([4]; 0.1 µM): 0.275 GR
GR value ([4]; 0.3162 µM): 0.206 GR
GR value ([4]; 1 µM): 0.122 GR
GR value ([4]; 3.162 µM): -0.0767 GR
GR value ([4]; 10 µM): -0.335 GR
GR value (BSJ-03-123; 0.001 µM): 0.699 GR
GR value (BSJ-03-123; 0.003162 µM): 0.719 GR
GR value (BSJ-03-123; 0.01 µM): 0.468 GR
GR value (BSJ-03-123; 0.03162 µM): 0.463 GR
GR value (BSJ-03-123; 0.1 µM): 0.454 GR
GR value (BSJ-03-123; 0.3162 µM): 0.419 GR
GR value (BSJ-03-123; 1 µM): 0.341 GR
GR value (BSJ-03-123; 3.162 µM): 0.306 GR
GR value (BSJ-03-123; 10 µM): -0.0958 GR
GR value (YKL-5-124; 0.001 µM): 0.436 GR
GR value (YKL-5-124; 0.003162 µM): 0.282 GR
GR value (YKL-5-124; 0.01 µM): 0.219 GR
GR value (YKL-5-124; 0.03162 µM): 0.111 GR
GR value (YKL-5-124; 0.1 µM): 0.0509 GR
GR value (YKL-5-124; 0.3162 µM): -0.0003 GR
GR value (YKL-5-124; 1 µM): -0.0242 GR
GR value (YKL-5-124; 3.162 µM): -0.079 GR
GR value (YKL-5-124; 10 µM): -0.393 GR
GR value ([5]; 0.0003162 µM): 1.03 GR
GR value ([5]; 0.001 µM): 1.06 GR
GR value ([5]; 0.003162 µM): 0.926 GR
GR value ([5]; 0.01 µM): 0.889 GR
GR value ([5]; 0.03162 µM): 0.604 GR
GR value ([5]; 0.1 µM): 0.398 GR
GR value ([5]; 0.3162 µM): 0.31 GR
GR value ([5]; 1 µM): 0.239 GR
GR value ([5]; 3.162 µM): 0.133 GR
